{"source": "the supplement of paper PMC10307832", "experiment_in_all_cases": "relative viability (nuclei count vs DMSO), 5 days (fraction); higher = more cells survive", "key": {"NCI-H1944": {"tested_on": "NCI-H1944", "in_short": "(§1)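 Lung cancer cell lines were seeded in 1536-well plates and dosed by pin tool the next day, with either a single drug or a fixed anchor-drug dose combined with five library-drug doses (not always all listed) spaced in √10 steps. Five days later, one step fixed the cells and stained their nuclei (final 0.05% Triton X-100, 1% formaldehyde, 1 ug/ml Hoechst), and nuclei were counted on 4× images. Relative viability is the nuclei count in treated wells divided by the count in vehicle wells, and each value is the median of duplicate plates.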"}, "NCI-H1793": {"tested_on": "NCI-H1793", "in_short": "as §1"}, "NCI-H1993": {"tested_on": "NCI-H1993", "in_short": "as §1"}, "EMC-BAC-2": {"tested_on": "EMC-BAC-2", "in_short": "as §1"}, "NCI-H1395": {"tested_on": "NCI-H1395", "in_short": "as §1"}, "LCLC-97TM1": {"tested_on": "LCLC-97TM1", "in_short": "as §1"}, "NCI-H1355": {"tested_on": "NCI-H1355", "in_short": "as §1"}, "LCLC-103H": {"tested_on": "LCLC-103H", "in_short": "as §1"}, "H3255": {"tested_on": "H3255", "in_short": "as §1"}, "NCI-H2085": {"tested_on": "NCI-H2085", "in_short": "as §1"}, "HCC-827": {"tested_on": "HCC-827", "in_short": "as §1"}, "NCI-H650": {"tested_on": "NCI-H650", "in_short": "as §1"}}, "data": [{"compound": "COc1cc(N2CCC(C(N)=O)CC2)ccc1Nc1nc(N)c(Cl)c(Nc2ccccc2S(=O)(=O)C(C)C)n1", "note": "[HG-5-88-01] + Cc1nc(Nc2ncc(C(=O)Nc3c(C)cccc3Cl)s2)cc(N2CCN(CCO)CC2)n1 [Dasatinib] (partner 0.075 µM)", "values": [{"measurement": "relative viability", "setting": "NCI-H1944; first compound 0.4 µM", "result": 0.233}, {"measurement": "relative viability", "setting": "NCI-H1944; first compound 1.265 µM", "result": 0.191}, {"measurement": "relative viability", "setting": "NCI-H1944; first compound 4 µM", "result": 0.188}, {"measurement": "relative viability", "setting": "NCI-H1793; first compound 0.1265 µM", "result": 0.617}, {"measurement": "relative viability", "setting": "NCI-H1793; first compound 0.4 µM", "result": 0.355}, {"measurement": "relative viability", "setting": "NCI-H1793; first compound 4 µM", "result": 0.336}, {"measurement": "relative viability", "setting": "NCI-H1993; first compound 0.04 µM", "result": 0.633}, {"measurement": "relative viability", "setting": "NCI-H1993; first compound 0.1265 µM", "result": 0.569}, {"measurement": "relative viability", "setting": "NCI-H1993; first compound 0.4 µM", "result": 0.502}, {"measurement": "relative viability", "setting": "NCI-H1993; first compound 1.265 µM", "result": 0.475}, {"measurement": "relative viability", "setting": "NCI-H1993; first compound 4 µM", "result": 0.581}, {"measurement": "relative viability", "setting": "EMC-BAC-2; first compound 0.04 µM", "result": 0.31}, {"measurement": "relative viability", "setting": "EMC-BAC-2; first compound 0.1265 µM", "result": 0.343}, {"measurement": "relative viability", "setting": "EMC-BAC-2; first compound 0.4 µM", "result": 0.217}, {"measurement": "relative viability", "setting": "EMC-BAC-2; first compound 1.265 µM", "result": 0.243}, {"measurement": "relative viability", "setting": "EMC-BAC-2; first compound 4 µM", "result": 0.218}, {"measurement": "relative viability", "setting": "NCI-H1395; first compound 0.04 µM", "result": 0.416}, {"measurement": "relative viability", "setting": "NCI-H1395; first compound 0.1265 µM", "result": 0.371}, {"measurement": "relative viability", "setting": "NCI-H1395; first compound 0.4 µM", "result": 0.393}, {"measurement": "relative viability", "setting": "NCI-H1395; first compound 1.265 µM", "result": 0.394}, {"measurement": "relative viability", "setting": "NCI-H1395; first compound 4 µM", "result": 0.36}, {"measurement": "relative viability", "setting": "LCLC-97TM1; first compound 0.04 µM", "result": 0.753}, {"measurement": "relative viability", "setting": "LCLC-97TM1; first compound 0.1265 µM", "result": 0.956}, {"measurement": "relative viability", "setting": "LCLC-97TM1; first compound 0.4 µM", "result": 0.481}, {"measurement": "relative viability", "setting": "LCLC-97TM1; first compound 1.265 µM", "result": 0.714}, {"measurement": "relative viability", "setting": "LCLC-97TM1; first compound 4 µM", "result": 0.477}, {"measurement": "relative viability", "setting": "NCI-H1355; first compound 0.04 µM", "result": 0.675}, {"measurement": "relative viability", "setting": "NCI-H1355; first compound 0.1265 µM", "result": 0.77}, {"measurement": "relative viability", "setting": "NCI-H1355; first compound 0.4 µM", "result": 0.597}, {"measurement": "relative viability", "setting": "NCI-H1355; first compound 1.265 µM", "result": 0.574}, {"measurement": "relative viability", "setting": "NCI-H1355; first compound 4 µM", "result": 0.388}, {"measurement": "relative viability", "setting": "LCLC-103H; first compound 0.04 µM", "result": 0.522}, {"measurement": "relative viability", "setting": "LCLC-103H; first compound 0.1265 µM", "result": 0.464}, {"measurement": "relative viability", "setting": "LCLC-103H; first compound 0.4 µM", "result": 0.418}, {"measurement": "relative viability", "setting": "LCLC-103H; first compound 1.265 µM", "result": 0.373}, {"measurement": "relative viability", "setting": "LCLC-103H; first compound 4 µM", "result": 0.341}, {"measurement": "relative viability", "setting": "H3255; first compound 0.04 µM", "result": 0.338}, {"measurement": "relative viability", "setting": "H3255; first compound 0.1265 µM", "result": 0.411}, {"measurement": "relative viability", "setting": "H3255; first compound 0.4 µM", "result": 0.355}, {"measurement": "relative viability", "setting": "H3255; first compound 4 µM", "result": 0.2}, {"measurement": "relative viability", "setting": "NCI-H2085; first compound 0.04 µM", "result": 0.296}, {"measurement": "relative viability", "setting": "NCI-H2085; first compound 0.1265 µM", "result": 0.242}, {"measurement": "relative viability", "setting": "NCI-H2085; first compound 0.4 µM", "result": 0.24}, {"measurement": "relative viability", "setting": "NCI-H2085; first compound 1.265 µM", "result": 0.186}, {"measurement": "relative viability", "setting": "NCI-H2085; first compound 4 µM", "result": 0.163}, {"measurement": "relative viability", "setting": "HCC-827; first compound 0.04 µM", "result": 0.279}, {"measurement": "relative viability", "setting": "HCC-827; first compound 0.1265 µM", "result": 0.271}, {"measurement": "relative viability", "setting": "HCC-827; first compound 0.4 µM", "result": 0.235}, {"measurement": "relative viability", "setting": "HCC-827; first compound 1.265 µM", "result": 0.101}, {"measurement": "relative viability", "setting": "HCC-827; first compound 4 µM", "result": 0.118}, {"measurement": "relative viability", "setting": "NCI-H650; first compound 0.04 µM", "result": 0.441}, {"measurement": "relative viability", "setting": "NCI-H650; first compound 0.1265 µM", "result": 0.46}, {"measurement": "relative viability", "setting": "NCI-H650; first compound 0.4 µM", "result": 0.378}, {"measurement": "relative viability", "setting": "NCI-H650; first compound 1.265 µM", "result": 0.391}, {"measurement": "relative viability", "setting": "NCI-H650; first compound 4 µM", "result": 0.304}]}]}
